Measured values taken from ChEMBL document CHEMBL5715954, “Silencing c-Myc translation as a therapeutic strategy through targeting PI3Kδ and CK1ε in hematological malignancies” (Blood, 2017).

Key:
Set-up in all cases: scale not given: the % may be the effect or the level left
[1] = molecular target: Protein kinase C theta type (Homo sapiens) (UniProt Q04759); assay: Inhibition of human PKCtheta assessed as enzyme activity at 1 uM using ERMRPRKRQGSVRRRV as substrate preincubated for 20 mins followed by [gamma-33P]-ATP addition and measured after 120 mins by radiometric Hot-SpotSM Kinase assay relative to control
Protein kinase C theta type (Homo sapiens), sequence (Q04759 whole entry, looked up): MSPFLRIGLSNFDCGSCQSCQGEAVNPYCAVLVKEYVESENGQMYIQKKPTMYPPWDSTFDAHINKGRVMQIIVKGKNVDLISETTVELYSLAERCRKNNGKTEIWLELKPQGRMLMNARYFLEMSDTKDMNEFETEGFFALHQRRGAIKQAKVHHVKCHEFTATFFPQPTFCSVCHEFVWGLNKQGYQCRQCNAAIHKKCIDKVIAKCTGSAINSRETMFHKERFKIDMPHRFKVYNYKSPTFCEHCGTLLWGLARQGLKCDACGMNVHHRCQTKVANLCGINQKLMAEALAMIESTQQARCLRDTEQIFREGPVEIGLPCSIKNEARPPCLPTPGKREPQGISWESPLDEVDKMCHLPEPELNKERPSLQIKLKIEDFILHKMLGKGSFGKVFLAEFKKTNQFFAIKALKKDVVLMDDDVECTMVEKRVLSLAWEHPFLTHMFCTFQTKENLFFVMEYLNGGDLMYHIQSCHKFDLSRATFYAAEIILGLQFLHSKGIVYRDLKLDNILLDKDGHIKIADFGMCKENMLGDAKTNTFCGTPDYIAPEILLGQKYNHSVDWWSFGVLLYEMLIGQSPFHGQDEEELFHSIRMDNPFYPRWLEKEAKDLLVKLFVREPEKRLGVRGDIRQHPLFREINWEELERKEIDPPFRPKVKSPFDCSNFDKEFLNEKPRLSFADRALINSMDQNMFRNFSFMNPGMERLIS

[2] = molecular target: Dual specificity protein kinase CLK3 (Homo sapiens) (UniProt P49761); assay: Inhibition of human CLK3 assessed as enzyme activity at 1 uM using myelin basic protein as substrate preincubated for 20 mins followed by [gamma-33P]-ATP addition and measured after 120 mins by radiometric Hot-SpotSM Kinase assay relative to control
Dual specificity protein kinase CLK3 (Homo sapiens), sequence (P49761 whole entry, looked up): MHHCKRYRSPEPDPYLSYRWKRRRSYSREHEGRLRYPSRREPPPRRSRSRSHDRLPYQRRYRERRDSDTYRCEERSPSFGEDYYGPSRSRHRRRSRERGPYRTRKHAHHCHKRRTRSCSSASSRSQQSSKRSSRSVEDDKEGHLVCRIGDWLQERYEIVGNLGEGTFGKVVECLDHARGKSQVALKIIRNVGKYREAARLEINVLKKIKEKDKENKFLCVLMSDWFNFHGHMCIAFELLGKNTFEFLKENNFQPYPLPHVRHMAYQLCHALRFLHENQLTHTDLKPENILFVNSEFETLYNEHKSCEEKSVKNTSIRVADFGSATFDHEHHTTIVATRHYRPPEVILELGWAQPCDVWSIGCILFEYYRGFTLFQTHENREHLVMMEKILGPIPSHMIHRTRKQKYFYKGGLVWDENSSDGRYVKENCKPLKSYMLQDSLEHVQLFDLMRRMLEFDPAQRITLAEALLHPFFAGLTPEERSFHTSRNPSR

[3] = molecular target: T1, Non-receptor tyrosine-protein kinase TNK1 (Homo sapiens) (UniProt Q13470); assay: Inhibition of human TNK1 assessed as enzyme activity at 1 uM using poly[Glu:Tyr] (4:1) as substrate preincubated for 20 mins followed by [gamma-33P]-ATP addition and measured after 120 mins by radiometric Hot-SpotSM Kinase assay relative to control
T1 sequence (whole entry): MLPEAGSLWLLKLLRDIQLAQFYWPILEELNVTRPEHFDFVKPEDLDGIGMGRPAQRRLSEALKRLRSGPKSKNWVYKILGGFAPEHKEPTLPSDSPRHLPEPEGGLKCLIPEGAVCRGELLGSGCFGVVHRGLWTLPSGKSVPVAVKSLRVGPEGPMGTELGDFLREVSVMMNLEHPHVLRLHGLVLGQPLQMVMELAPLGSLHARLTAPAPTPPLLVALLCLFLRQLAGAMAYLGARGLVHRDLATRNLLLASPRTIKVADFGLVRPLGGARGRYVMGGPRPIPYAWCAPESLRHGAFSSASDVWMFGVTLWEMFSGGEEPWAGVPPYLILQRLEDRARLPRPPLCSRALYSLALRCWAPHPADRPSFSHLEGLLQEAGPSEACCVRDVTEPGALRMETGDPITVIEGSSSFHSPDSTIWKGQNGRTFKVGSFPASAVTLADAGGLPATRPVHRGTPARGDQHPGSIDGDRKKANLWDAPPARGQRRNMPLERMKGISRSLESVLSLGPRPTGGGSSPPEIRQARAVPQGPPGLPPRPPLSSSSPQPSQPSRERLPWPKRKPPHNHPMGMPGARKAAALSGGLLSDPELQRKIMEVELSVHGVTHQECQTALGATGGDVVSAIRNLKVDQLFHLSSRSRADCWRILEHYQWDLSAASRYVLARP

[4] = molecular target: T2, Dual specificity tyrosine-phosphorylation-regulated kinase 2 (Homo sapiens) (UniProt Q92630); assay: Inhibition of human DYRK2 assessed as enzyme activity at 1 uM using RRRFRPASPLRGPPK as substrate preincubated for 20 mins followed by [gamma-33P]-ATP addition and measured after 120 mins by radiometric Hot-SpotSM Kinase assay relative to control
T2 sequence (whole entry): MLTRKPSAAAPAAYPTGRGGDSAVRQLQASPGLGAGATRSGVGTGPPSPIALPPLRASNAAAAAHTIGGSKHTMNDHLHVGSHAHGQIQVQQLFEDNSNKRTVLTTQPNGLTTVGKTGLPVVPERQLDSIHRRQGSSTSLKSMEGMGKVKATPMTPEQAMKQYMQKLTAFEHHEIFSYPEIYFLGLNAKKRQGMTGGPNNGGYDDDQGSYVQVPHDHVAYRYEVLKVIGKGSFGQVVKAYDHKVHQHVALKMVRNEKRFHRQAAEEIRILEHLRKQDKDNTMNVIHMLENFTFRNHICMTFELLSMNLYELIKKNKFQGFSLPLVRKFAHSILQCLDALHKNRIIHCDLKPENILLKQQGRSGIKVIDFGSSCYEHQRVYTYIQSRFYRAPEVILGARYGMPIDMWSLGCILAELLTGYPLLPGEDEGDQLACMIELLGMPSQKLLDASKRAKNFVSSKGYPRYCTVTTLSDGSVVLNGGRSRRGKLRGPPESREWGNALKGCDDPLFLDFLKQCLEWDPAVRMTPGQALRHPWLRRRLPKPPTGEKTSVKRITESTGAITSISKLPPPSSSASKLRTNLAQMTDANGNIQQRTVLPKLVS

[5] = molecular target: Serine/threonine-protein kinase NIM1 (Homo sapiens) (UniProt Q8IY84); assay: Inhibition of human NIM1 assessed as enzyme activity at 1 uM using KKKVSRSGLYRSPSMPENLNRPR as substrate preincubated for 20 mins followed by [gamma-33P]-ATP addition and measured after 120 mins by radiometric Hot-SpotSM Kinase assay relative to control
Serine/threonine-protein kinase NIM1 (Homo sapiens), sequence (Q8IY84 whole entry): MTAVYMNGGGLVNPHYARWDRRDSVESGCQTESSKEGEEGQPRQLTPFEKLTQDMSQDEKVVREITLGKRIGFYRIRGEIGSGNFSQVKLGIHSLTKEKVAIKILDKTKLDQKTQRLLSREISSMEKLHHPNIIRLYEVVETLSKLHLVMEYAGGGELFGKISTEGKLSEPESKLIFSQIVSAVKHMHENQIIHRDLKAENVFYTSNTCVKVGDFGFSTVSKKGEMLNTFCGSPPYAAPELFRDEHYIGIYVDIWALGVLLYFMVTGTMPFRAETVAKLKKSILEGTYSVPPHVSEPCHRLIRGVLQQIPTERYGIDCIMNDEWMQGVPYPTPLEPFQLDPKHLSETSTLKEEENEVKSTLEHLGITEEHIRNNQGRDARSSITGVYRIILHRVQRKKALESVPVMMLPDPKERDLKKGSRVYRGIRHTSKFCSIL

[6] = molecular target: T3, Serine/threonine-protein kinase LATS2 (Homo sapiens) (UniProt Q9NRM7); assay: Inhibition of human LATS2 assessed as enzyme activity at 1 uM using KKRNRRLSVA as substrate preincubated for 20 mins followed by [gamma-33P]-ATP addition and measured after 120 mins by radiometric Hot-SpotSM Kinase assay relative to control
T3 sequence (whole entry): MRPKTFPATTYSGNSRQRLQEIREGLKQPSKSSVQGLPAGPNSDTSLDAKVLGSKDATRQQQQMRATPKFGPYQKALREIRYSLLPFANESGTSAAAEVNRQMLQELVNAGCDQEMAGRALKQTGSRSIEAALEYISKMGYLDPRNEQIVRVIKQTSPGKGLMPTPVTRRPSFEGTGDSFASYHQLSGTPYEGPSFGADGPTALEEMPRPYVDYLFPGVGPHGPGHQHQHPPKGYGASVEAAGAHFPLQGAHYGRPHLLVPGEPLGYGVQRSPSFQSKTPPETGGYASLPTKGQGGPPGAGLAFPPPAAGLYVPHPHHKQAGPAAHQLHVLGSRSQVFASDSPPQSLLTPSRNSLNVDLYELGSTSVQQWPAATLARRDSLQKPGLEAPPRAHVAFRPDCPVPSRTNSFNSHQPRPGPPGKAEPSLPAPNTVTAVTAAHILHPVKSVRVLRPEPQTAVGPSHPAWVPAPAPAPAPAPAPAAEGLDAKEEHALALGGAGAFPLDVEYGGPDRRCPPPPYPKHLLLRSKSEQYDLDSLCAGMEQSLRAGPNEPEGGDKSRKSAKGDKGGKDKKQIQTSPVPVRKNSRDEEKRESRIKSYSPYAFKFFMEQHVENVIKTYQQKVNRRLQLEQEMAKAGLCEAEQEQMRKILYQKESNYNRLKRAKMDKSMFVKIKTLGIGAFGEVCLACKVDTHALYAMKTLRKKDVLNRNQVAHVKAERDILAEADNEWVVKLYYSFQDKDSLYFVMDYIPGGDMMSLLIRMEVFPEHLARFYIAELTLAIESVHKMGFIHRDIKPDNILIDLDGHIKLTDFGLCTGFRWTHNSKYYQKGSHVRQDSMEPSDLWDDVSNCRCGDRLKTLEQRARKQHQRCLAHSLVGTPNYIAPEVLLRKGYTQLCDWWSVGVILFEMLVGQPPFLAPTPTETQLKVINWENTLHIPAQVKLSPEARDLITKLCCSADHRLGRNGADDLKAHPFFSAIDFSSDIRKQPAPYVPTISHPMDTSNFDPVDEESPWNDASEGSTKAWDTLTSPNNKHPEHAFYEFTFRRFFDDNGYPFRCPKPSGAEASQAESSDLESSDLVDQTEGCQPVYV

Row | SMILES | Activity [1] | Activity [2] | Activity [3] | Activity [4] | Activity [5] | Activity [6]
1 | CC[C@H](Nc1ncnc2[nH]cnc12)c1nc2cccc(F)c2c(=O)n1-c1ccccc1 | 109% | 89% | 86.3% | 99% | 93.6% | 91.5%
2 | C[C@H](Nc1ncnc2nc[nH]c12)c1cc2cccc(Cl)c2c(=O)n1-c1ccccc1 | 112% | 92.3% | 87.5% | 99% | 94% | 91.9%
3 | CC(C)Oc1ccc(-c2nn([C@@H](C)c3oc4ccc(F)cc4c(=O)c3-c3cccc(F)c3)c3ncnc(N)c23)cc1F [UMBRALISIB] | 106% | 93.7% | 88.9% | 99.2% | 93% | 103%
